Assay results: patent US8796280B2, “2,3-disubstituted pyrazinesulfonamides as CRTH2 inhibitors” (Merck Serono, S.A., priority 2005, dated 2014)

Legend:
CRTH2 [1] = molecular target: T1, CRTH2 (Homo sapiens (Human), UniProt Q9Y5Y4); test: Radioligand binding assay ([3H]PGD2 displacement, hCRTH2 HEK293 (EBNA) cell membranes); conditions: 1.5 nM [3H]PGD2, 10 μg hCRTH2 HEK293 (EBNA) membrane protein, 60 min room temperature; test concentration not given
Description: Human CRTH2 cDNA was amplified by PCR using a human urinary bladder cDNA library as a template and specific primers containing HindIII and BamHI restriction sites for cloning into the pCEP4 vector (Invitrogen). The vector construction is described in detail in Sawyer et al., Br. J. Pharmocol 2002, 137, 1163-72. The nucleotide sequence of the cloned cDNA was identical the previously reported hCRTH2 sequence (Nagata et al, 1999, J. Immunol. 162, 1278-1286).
HEK293 (EBNA) cells were transfected with the pCEP4-hCRTH2 construct using the calcium phosphate technique. Cells were maintained in culture at 37° C. in an atmosphere of 5% CO2 in Dulbecco's modified Eagle's F12 medium (Invitrogen), containing 10% heat-inactivated foetal calf serum (TerraCell International, Canada), 2 mM Glutamine, 100 units/ml of penicillin and 100 μg/ml streptomycin (Invitrogen). 48 hours after the transfection, cells were grown in presence of 300 μg/ml of Hygromycin B (Invitrogen) for 4 weeks and antibiotic resistant cells were amplified for cell membrane preparation.
Adherent HEK293 (EBNA) cells expressing hCRTH2 were cultured in 225 cm^2 cell culture flasks (Corning, USA) in 30 ml of medium. After two rinses of phosphate buffered saline (PBS), cells were harvested in 10 ml of PBS containing 1 mM EDTA, centrifuged at 500×g for 5 min at 4° C. and frozen at −80° C. The pellet was re-suspended in 50 mM Tris-HCl, pH 7.4, 2 mM EDTA, 250 mM Sucrose, containing protease inhibitor cocktail tablets, (Complete EDTA-free, Roche, Germany) and incubated 30 min at 4° C. Cells were disrupted by nitrogen cavitation (Parr Instruments, USA) at 4° C. (800 p.s.i. for 30 min), and centrifuged at 500×g for 10 min at 4° C. Pellet containing nuclei and cellular debris was discarded and supernatant was centrifuged 60 min at 4° C. at 45000×g. Membrane pellet was re-suspended in storage buffer (10 mM HEPES/KOH pH 7.4, 1 mM EDTA, 250 mM sucrose, protease inhibitor cocktail tablets) using Dounce homogenization and frozen in liquid nitrogen, and stored at −80° C.
(§1) The inhibitory activity can be investigated by a radioligand binding assay (Sawyer et al., Br. J. Pharmocol 2002, 137, 1163-72). The radioligand binding assay was performed at room temperature in binding buffer (10 mM HEPES/KOH pH […], with protease inhibitor cocktail tablets), containing 1.5 nM [^3H]PGD2 (Amersham, 156 Cie/mmol), and 10 μg of hCRTH2 HEK293 (EBNA) cell membrane protein in a final volume of 100 μl in 96 well plates (Corning, USA). Non-specific binding was determined in the presence of 1 μM PGD2 (Cayman, USA). Competing pyrazine sulfonamides were diluted in dimethylsulphoxide so that the total volume of dimethylsulfoxide was kept constant at 1% dimethylsulphoxide (Me2SO). 10 μl of the pyrazine sulfonamides were added. Incubation (60 min at room temperature) was terminated by rapid filtration through 96 wells hydrophobic GF/C Unifilter plates (Whatman, USA). Filters were washed twice with 250 μl of Tris-HCl pH 7.4, 10 mM MnCl2, and residual radioligand bound to the filters was mixed to 100 μl of liquid scintillation cocktail (Optiphase Supermix, Perkin Elmer, USA) and binding activity was determined by counting residual radioligand using a 1450 Micro-beta scintillation counter (Wallac, UK).

CRTH2 [2] = molecular target: T1, CRTH2; test: Determination of Ki, equilibrium competition binding against [3H]PGD2; conditions: competition against [3H]PGD2; average of at least three independent dose response experiments; Ki calculated from IC50
Method: as §1
Ki values were determined by equilibrium competition binding experiments against [^3H]PGD2. Ki values were calculated from the formula below and represent the average of at least three independent dose response experiments. The Ki values give the ligand concentrations necessary to inhibit 50% of the binding of 3[H]PGD2 to CRTH2. Ki=IC50/(1+[Concentration of Ligand]/Kd)]
All experiments were performed in 96 well plates, in a final volume of 100 μl according to the above described filtration assay. The concentration of membranes and 3[H]PGD2, as well as the positive and negative controls were identical to the conditions described above.

CRTH2 [3] = molecular target: T1, CRTH2; test: [35S]GTPγS binding assay; format: biochemical; conditions: inhibition of [35S]GTPγS binding, membranes expressing hCRTH2, 80 nM PGD2 (antagonist activity)
Method: The [^35S]GTPγS assay measures the increase in guanine nucleotide exchange at G-proteins in cell membranes, resulting from agonist (PGD2) binding to CRTH2. This process can be monitored in vitro by incubating cell membranes containing G-proteins and CRTH2 with GDP and [^35S]GTPγS, a radiolabeled, hydrolysis-resistant analogue of GTP (see, Harrison et al., Life Sciences 74, 489-508, 2003). The addition of a pyrazine sulfonamide results in binding to CRTH2 and thus in an inhibition of agonist binding, which can be monitored as inhibition of the stimulation of GTP/GDP exchange.
Assay conditions were identical to conditions of radioligand binding assay as described in Example 21. The [^35S]GTPγS binding assay was performed at 30° C. with gentle agitation in 96-well scintillating white polystyrene plates (Perkin Elmer, USA), in a final volume of 200 μl, containing 2% of dimethylsulphoxide (Me2SO). The 2,3 substituted pyrazine sulfonamides were incubated in 20 mM HEPES/KOH pH 7.4, 1 mM MgCl2, 10 μg/ml Saponin, 3 μM GDP, 150 mM NaCl containing 10 μg of membranes expressing the hCRTH2 receptor (Euroscreen, Belgium) for 10 min. Non-specific binding was determined in the presence of 10 μM of GTPγS. Samples were incubated for 30 min in the presence of increasing concentrations of PGD2 for the determination of agonist activity, or with 80 nM of PGD2 for determination of antagonist activity, respectively. 0.15 nM of [^35S]GTPγS were subsequently added to each sample and after incubation of 30 min reactions were stopped by centrifugation at 1000×g, at 4° C. for 10 min. Supernatant was removed and [^35S]GTPγS binding was determined using a 1450 Micro-beta scintillation counter. Data were analysed using “Prism” (GraphPad Software, Inc. San Diego, USA). The determination of the IC50 values (i.e. the amount necessary to achieve 50% inhibition of binding (in μM)) were performed in 96 well plates, in a final volume of 100 μl according to the above described filtration assay. […]

T1 sequence (Q9Y5Y4 whole entry): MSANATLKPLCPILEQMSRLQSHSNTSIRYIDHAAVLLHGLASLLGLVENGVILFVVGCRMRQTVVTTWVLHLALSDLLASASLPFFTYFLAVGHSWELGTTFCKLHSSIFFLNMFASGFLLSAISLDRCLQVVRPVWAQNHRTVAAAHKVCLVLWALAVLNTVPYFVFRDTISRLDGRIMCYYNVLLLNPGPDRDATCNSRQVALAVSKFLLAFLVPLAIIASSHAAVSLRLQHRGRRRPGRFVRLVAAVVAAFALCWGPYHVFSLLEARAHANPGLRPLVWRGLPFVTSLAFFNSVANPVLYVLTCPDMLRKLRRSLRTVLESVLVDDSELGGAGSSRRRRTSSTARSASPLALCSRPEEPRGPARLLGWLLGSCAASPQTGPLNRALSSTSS

Q: For `O=S(=O)(Nc1nccnc1-c1ccc(Cn2ccc3ccccc32)cc1)c1ccccc1C(F)(F)F` [Compound 1, N-{3-[4-(1H-indol-1-ylmethyl)phenyl]pyrazin-2-yl}-2-(trifluoromethyl)benzene-sulfonamide], which “Inhibition hCRTH2 [%]” value (CRTH2 [1]) is on record?
A: The value was 94.5%.

Q: What about the Ki (CRTH2 [2]) of the same molecule?
A: The Ki was 1010 nM.

Q: And the IC50 (CRTH2 [3])?
A: Its IC50 is 1900 nM.

Q: Which “Inhibition hCRTH2 [%]” value (CRTH2 [1]) does the source give for `CN(Cc1ccc(-c2nccnc2NS(=O)(=O)c2ccccc2Cl)cc1)c1ccc(OC(F)(F)F)cc1` [Compound 2, 2-chloro-N-{3-[4-({methyl[4-(trifluoromethoxy)phenyl]amino}-methyl)-phenyl]pyrazin-2-yl}benzene sulfonamide] here?
A: Its value is 91.5%.

Q: And the Ki (CRTH2 [2])?
A: Its Ki is 1260 nM.

Q: What about the IC50 (CRTH2 [3]) of the same molecule?
A: Its IC50 is 4600 nM.

Q: For `CCc1nc2ccccc2n1Cc1ccc(-c2nccnc2NS(=O)(=O)c2ccccc2C(F)(F)F)cc1` [Compound 3, N-(3-{4-[(2-ethyl-1H-benzimidazol-1-yl)methyl]phenyl}pyrazin-2-yl)-2-(trifluoromethyl)benzenesulfonamide], which “Inhibition hCRTH2 [%]” value (CRTH2 [1]) is on record?
A: The value was 86.5%.

Q: What about the Ki (CRTH2 [2]) of the same molecule?
A: The Ki was 450 nM.

Q: What about the IC50 (CRTH2 [3]) of the same molecule?
A: The IC50 was 1400 nM.
